Results taken from US11730770B2, “Methods for making and using sinoatrial node-like pacemaker cardiomyocytes and ventricular-like cardiomyocytes” (UNIVERSITY HEALTH NETWORK, priority 2015, dated 2023).

How the values were obtained:
Assay type in all cases: cell-based, human
[1] = test system: pacemaker funny current (If); assay: Patch clamp, pacemaker funny current density; conditions: 2 mM Cesium (Cs+) vs Tyrode's solution
Method: FIG. 9. A, Current-voltage relationship for pacemaker funny current density (If) in SANLCM and VLCM. Inset: voltage protocol, from a holding potential of −40 mV currents were elicited by 3 s voltage steps of −10 mV down to −120 mV. Current densities were measured by subtraction of the instantaneous current (t=0) from the current at the end of the 3 sec voltage step. B,C Original pacemaker funny current traces at different membrane potentials in Tyrode's solution (B) and blocked by the application of 2 mM Cesium (Cs^+) (C). Inset: voltage protocol, from a holding potential of −40 mV currents were elicited by 3 s voltage steps of −10 mV down to −120 mV. […] Current densities were measured as peak inward currents. […]
Action potentials and membrane currents were measured with standard current- and voltage-clamp techniques using axopatch amplifier. […] Spontaneous action potentials, funny current (If) and inward rectifier potassium currents ([…]) were recorded at 37° C. using the perforated patch method (nystatin)^14 with the following bath solution (mM): NaCl 124. […] Sodium currents (IN) were recorded at 25° C. using the whole cell ruptured patch method in calcium free bath solution containing low Na^+ to reduce current amplitude for better voltage control (mM): NaCl 30, TEA-Cl 115, CaCb20.01, MgCl2 1, and glucose 5, Hepes 10 (pH 7.4, adjusted with NaOH). […]

[2] = test system: HES-2 embryonic stem cell line; assay: Flow cytometry of day 20 HES2 cultures, intracellular NKX2-5 and cTNT staining
Method: For the generation of SANLCM cultures free of NKX2-5′ cardiomyocytes mesoderm was induced with the 3B/2A condition (3 ng/ml BMP4, 2 ng/ml ACTA) at day 1 of differentiation. […]
For the dissociation of day 3-day 12 EBs TrypLE was used. Day 12-30 EBs were incubated in HANKs buffer containing 1 mg/ml Collagenes type 2 (Worthington) with gentle shaking over night at room temperature, prior to TypLE dissociation. Cells were stained at a concentration of 5×10^6 cells/ml with anti-PDGFRα-PE (1:20) anti-KDR-APC (1:10), (R&D Systems), anti-SIRPA-PeCy (clone SE5A5, 1:1000, Biolegend), anti-CD90-APC (BD), anti-cardiac isoform of cTNT (clone 13-11; 1:2000, Thermo Fischer), rabbit anti-human NKX2-5 (1:800, Cell Signaling Technology), goat anti-mouse IgG APC (1:250, BD), goat anti-mouse IgG PE (1:200, Jackson ImmunoResearch), donkey anti-rabbit IgG A647 Life Technologies). For cell-surface markers staining was carried out in PBS containing 5% FCS. For intra-cellular staining cells were fixed for 10 min at 4° C. with 4% PFA and stained in PBS containing 5% FCS and 0.5% saponin (cTNT) or 0.3% TritonX (NKX2-5). Stained cells were analyzed using the LSR II Flow cytometer (BD). For cell sorting the cells were kept in IMDM containing 5% FCS and sorted at a concentration of 10^6 cell/ml using MoFlo (BD) and Influx (BD) sorter. […] Data were analyzed using FlowJo software (Tree Star). […]

[3] = test system: HES3 NKX2-5:GFP reporter line; assay: Flow cytometry of day 20 differentiation cultures for NKX2-5 and cTNT
Method: Human pluripotent stem cell lines (Hes3 NKX2-5:GFP)^10 H7 (HESC line approved by NIH registration number 0061^32 and MSC-IPS1^11 were cultured as described^12. For differentiation into the cardiac lineage the established protocol was used with the following modifications (FIG. 1A). 80% confluent hPSCs cultures were dissociated into single cells, suspended in StemPro-34 Media containing 1 ng/ml BMP4 and 10 μM ROCK inhibitor and incubated for 18 h on an orbital shaker to generate embryoid bodies (EBs). The next day (day 1 of differentiation) the EBs were transferred to mesoderm induction media: StemPro-34 containing 10 ng/ml BMP4, 6 ng/ml ActivinA, 5 ng/ml bFGF. At day 3 of differentiation the EBs were washed once using IMDM and suspended in cardiac induction media: StemPro-34 containing 0.5 μM IWP2, 10 ng/ml VEGF, and optionally 5.4 μM SB-431542 (SB, Activin/Nodal/TGFβ inhibitor). At day 5 of differentiation EBs were switched to basic media: Stempro containing 5 ng/ml VEGF. Media was supplemented with VEGF until day 12 of differentiation and changed every 4 days. All cytokines were purchased from R&D systems if not indicated otherwise. EBs were cultured under low oxygen conditions 5% CO2, 5% O2, 90% N2 until day 12 and at 5% CO2, normal air conditions for the rest of the culture period.
EBs were dissociated into single cells at the mesoderm stage (day 3 of differentiation) using TrypLE (Life Technologies) with the rational to ensure efficient cytokine supply to each cell. Cells were placed into 96 well low cluster plates at 80,000 cells/well with the indicated cytokines and 5 μM ROCK inhibitor for re-aggregation into EBs (FIG. 2A). At day 5 of differentiation EBs were transferred to 24 well low cluster plates and continued to be cultured in basic media as described above.
For efficient specification of SANLCM pacemaker, mesoderm was induced with the 3B/2A condition (3 ng/ml BMP4, 2 ng/ml ACTA) at day 1 of differentiation. At day 3 EBs were dissociated as described above and treated with 2.5 ng/ml BMP4 and 0.5 μM RA in addition to standard cardiac induction media.
For the generation of SANLCM cultures free of NKX2-5′ cardiomyocytes mesoderm was induced with the 3B/2A condition (3 ng/ml BMP4, 2 ng/ml ACTA) at day 1 of differentiation. For this protocol EBs were kept intact and treated at day 3 with 2.5 ng/ml BMP4, 0.5 μM RA and 960 nM FGF inhibitor (PD 173074, Tocris) at day 3 or day 4 in addition to standard cardiac induction media.
For the dissociation of day 3-day 12 EBs TrypLE was used. Day 12-30 EBs were incubated in HANKs buffer containing 1 mg/ml Collagenes type 2 (Worthington) with gentle shaking over night at room temperature, prior to TypLE dissociation. Cells were stained at a concentration of 5×10^6 cells/ml with anti-PDGFRα-PE (1:20) anti-KDR-APC (1:10), (R&D Systems), anti-SIRPA-PeCy (clone SE5A5, 1:1000, Biolegend), anti-CD90-APC (BD), anti-cardiac isoform of cTNT (clone 13-11; 1:2000, Thermo Fischer), rabbit anti-human NKX2-5 (1:800, Cell Signaling Technology), goat anti-mouse IgG APC (1:250, BD), goat anti-mouse IgG PE (1:200, Jackson ImmunoResearch), donkey anti-rabbit IgG A647 Life Technologies). For cell-surface markers staining was carried out in PBS containing 5% FCS. For intra-cellular staining cells were fixed for 10 min at 4° C. with 4% PFA and stained in PBS containing 5% FCS and 0.5% saponin (cTNT) or 0.3% TritonX (NKX2-5). Stained cells were analyzed using the LSR II Flow cytometer (BD). For cell sorting the cells were kept in IMDM containing 5% FCS and sorted at a concentration of 10^6 cell/ml using MoFlo (BD) and Influx (BD) sorter. For sorting of PFA-fixed cells for subsequent RNA isolation the staining buffers and PBS for cell collection were supplemented with 5 mM DTT and 100 U/ml RNaseOUT (Life Technologies). All buffer components were RNAse free and samples were strictly kept on ice and sorted within 3 h from PFA-fixation. Data were analyzed using FlowJo software (Tree Star).

[4] = test system: SAN pacemaker marker, ventricular marker and cardiac ion channels; assay: Q-PCR analysis of marker gene expression; conditions: BMP4 day 3-5, 2.5 ng/ml vs untreated control, day 4 to 12
Method: Total RNA was isolated using the RNAqueous-micro Kit (Ambion) followed by a DNase digestion step (Ambion). For RNA isolation from PFA-fixed cells the RecoverAll Kit (Ambion) was used. 500 ng to 1 μg of RNA was reverse transcribed into cDNA using random hexamers and Oligo(dT) primers with Superscript III Reverse Transcriptase (life technologies). QPCRs were performed on the EP RealPlex MasterCycler (Eppendorf) using the QuntiFast SYBR Green PCR Kit (Qiagen) according to the manufacturer's instructions. A 10-fold dilution series of human genomic DNA standards ranging from 25 ng/μl to […] was used to evaluate the efficiency of the PCR and calculate the copy number of each gene relative to the house keeping gene TBP as described previously^13. Human fetal heart tissue gestation stage 17 was purchased from Novogenix Laboratories. After dissecting ventricular, sinoatrial node and atrioventricular node tissue RNA was isolated using the Trizol method (Life Technologies) and treated with DNase (Ambion).

TBX18 = assay: Quantification of TBX18+ cells from immunostaining; conditions: BMP4 2.5 ng/ml day 3-5
Method: Cells were fixed with 4% PFA for 10 min at 4° C. and permeabilized using 0.3% Triton X, 200 mM Glycerin for 20 min at RT. Samples were blocked for 30 min at room temperature in blocking buffer (BB): 10% donkey serum, 2% BSA, 0.1% Triton X. The following primary antibodies were incubated in BB over night at 4° C.: anti-cardiac isoform of cTNT (clone 13-11; 1:100, Thermo Fischer), rabbit anti-human MLC2v (1:100), rabbit anti-human SHOX2 (1:200), (Abcam), rabbit anti-human TBX3 (1:100), goat anti-human Tbx18 (1:50), (Santa Cruz). Respective secondary antibodies were incubated for 30 min at RT: donkey anti-mouse IgG A647 (1:400), donkey anti-rabbit IgG A467 (1:400), (Life Technologies), goat anti-mouse IgG Cy3 (1:400), donkey anti-rabbit IgG Cy3 (1:800), donkey anti-goat IgG Cy3 (1:800), (Jackson ImmunoResearch). DAPI was used to counterstain cell nuclei and slides were mounted using Fluorescent Mounting Medium (Dako). The Olympus FluoView 1000 Laser Scanning Confocal Microscope and the FV10-ASW software were used for imaging.
For the quantification of DAPI and TBX18 positive cell nuclei the IMAGE J software plugin ICTN was used. For each condition three random taken pictures (FIG. 3F) of three independent experiments were analyzed.

[Cs] [Cesium]
effect on pacemaker funny current traces [1]: blocked

CCN(CC)CCCCNc1ncc2cc(-c3cc(OC)cc(OC)c3)c(NC(=O)NC(C)(C)C)nc2n1 [PD 173074]
NKX2-5+ myocytes in day 20 cultures ([2]; 240 nM FGFi day 3-5, vs 43% at endogenous bFGF levels): 5%
NKX2-5-cTNT+ SANLCMs in day 20 cultures ([2]; BMP 2.5 ng/ml, RA 0.5 μM, 240 nM FGFi day 3-5): up to 36%
NKX2-5+ cardiomyocytes in day 20 cultures ([3]; BMP+RA plus FGF inhibitor 240-960 nM): 51%
NKX2-5-cTNT+ SANLCM in day 20 cultures ([3]; BMP+RA plus FGF inhibitor from day 4-6 (480 nM)): 48±3%
block in development of NKX2-5+ cardiomyocytes ([3]; FGF inhibitor applied from day 5 onwards): no effect

CC1=C(/C=C/C(C)=C/C=C/C(C)=C/C(=O)O)C(C)(C)CCC1 [RA, retinoic acid]
generation of total cardiomyocytes and SANLCM frequency ([3]; RA 500 nM added at later times (days 3 to 12)): no effect

BMP4: Bone Morphogenetic Protein 4
TBX18 expression [4]: significantly up-regulated
proportion of SANLCMs ([3]; BMP4 1.25-5 ng/ml day 3-5, mesoderm induced with 3B/2A): 35±1%
proportion of SANLCMs ([3]; BMP4 1.25-5 ng/ml day 3-5, mesoderm induced with 5B/4A): 21±1%
proportion of SANLCMs ([3]; BMP4 1.25-5 ng/ml day 3-5, mesoderm induced with 10B/6A): 15±2%
total cardiomyocytes ([3]; high levels of BMP4 (10-20 ng/ml) between day 3-5): significant reduction
number of TBX18+ cells at day 6 (TBX18): 38±2%

bFGF: fibroblast growth factor FGF2
NKX2-5-cTNT+ SANLCM population in day 20 cultures ([3]; BMP+RA plus bFGF (20 ng/ml, day 4-6)): 12±1%
